According to patent US20200017495A1, “NOVEL HETEROCYCLIC COMPOUNDS AND THEIR USE IN PREVENTING OR TREATING BACTERIAL INFECTIONS” (priority 2017, published 2020):
Like-named read-outs stand apart in the source and are kept apart here.

What was measured:
Assay in all cases: MIC of compounds alone and combined with antibacterials, broth microdilution (CLSI)
Type in all cases: cell-based
[1] = tested on: Escherichia coli (ECO) isolates; details: Escherichia coli, read-out: MIC
Description: (§1) Method 2: MIC of Compounds Alone and Combined with Antibacterials Against Bacterial Isolates
(§2) Compounds of the present invention were assessed against genotyped bacterial strains (Table 3, 4) alone or in combination with an antibacterial (Table 2). […] Log phase bacterial suspensions were adjusted to a final density of 5.10^5 CFU/mL in cation-adjusted Mueller-Hinton broth (ca-MHB; Becton-Dickinson and Company) and added to each well (98 μL). Microplates were incubated for 16-20 h at 35° C. in ambient air. The MIC of the compounds was defined as the lowest concentration of said compounds that prevented bacterial growth as read by visual inspection. The MIC of ATB at each compound concentration was defined as the lowest concentration of ATB that prevented bacterial growth as read by visual inspection.

[2] = tested on: Enterobacter cloacae (ECL) isolates; details: Enterobacter cloacae, read-out: MIC
Description: as §1, §2

[3] = tested on: Morganella morganii (MMO) isolates; details: Morganella morganii, read-out: MIC
Description: as §1, §2

[4] = tested on: Enterobacter aerogenes (EAE) isolates; details: Klebsiella aerogenes, alone, read-out: MIC
Description: as §1, §2

[5] = tested on: Citrobacter koseri (CKR) isolates; details: Citrobacter koseri, alone, read-out: MIC
Description: as §1, §2

In the case of `O=C1N2CC(n3cccn3)=CC(C2)N1OC(F)(F)C(=O)[O-].[Li+]` (centres unmarked) [AF3], the MIC ([1]; ECO 4133, alone) is reported as 4 µg/mL, the MIC ([1]; ECO 5302, alone) is reported as 4 µg/mL and the MIC ([1]; ECO 131119, alone) is reported as 4 µg/mL. The MIC ([1]; ECO 180070, alone) was 4 µg/mL, the MIC ([1]; ECO 190314, alone) was 8 µg/mL and the MIC ([1]; ECO 190317, alone) was 4 µg/mL. For the same compound, the MIC ([1]; ECO 190457, alone) was 4 µg/mL, the MIC ([1]; ECO 190549, alone) was 4 µg/mL and the MIC ([1]; ECO 200159, alone) was 4 µg/mL. For the same compound, the MIC ([1]; ECO 200259, alone) was 4 µg/mL, the MIC ([1]; ECO 200344, alone) was 4 µg/mL and the MIC ([1]; ECO 260096, alone) was 16 µg/mL. It also gave an MIC ([1]; ECO 260304, alone) of 8 µg/mL, an MIC ([1]; ECO 260508, alone) of 8 µg/mL and an MIC ([1]; ECO (strain number on grid row 356, not shown), alone) of 8 µg/mL. The MIC ([1]; ECO RGN238, alone) was 8 µg/mL, the MIC ([1]; ECO UFR15, alone) was 8 µg/mL and the MIC ([1]; ECO UFR16, alone) was 8 µg/mL. The MIC ([1]; ECO UFR17, alone) was greater than 32 µg/mL, the MIC ([1]; ECO UFR18, alone) was 8 µg/mL and the MIC ([1]; ECO UFR19, alone) was 8 µg/mL. The MIC ([1]; ECO UFR32, alone) was 8 µg/mL, the MIC ([1]; ECO UFR39, alone) was 8 µg/mL and the MIC ([1]; ECO UFR41, alone) was 8 µg/mL. The MIC ([1]; ECO UFR45, alone) was 4 µg/mL, the MIC ([1]; ECO UFR52, alone) was 8 µg/mL and the MIC ([1]; ECO UFR61O, alone) was 16 µg/mL. For the same compound, the MIC ([1]; ECO UFR62, alone) was 8 µg/mL, the MIC ([1]; ECO UFR74, alone) was 8 µg/mL and the MIC ([1]; ECO UFR86, alone) was 16 µg/mL. It also gave an MIC ([1]; ECO UFR174, alone) of 4 µg/mL, an MIC ([1]; ECO UFR175, alone) of 16 µg/mL and an MIC ([1]; ECO UFR176, alone) of 8 µg/mL. The MIC ([1]; ECO UFR184, alone) was 8 µg/mL, the MIC ([1]; ECO UFR208, alone) was 16 µg/mL and the MIC ([1]; ECO UFR209, alone) was 8 µg/mL. The MIC ([1]; ECO UFR210, alone) was 4 µg/mL, the MIC ([1]; ECO UFR211, alone) was 8 µg/mL and the MIC ([1]; ECO UFR212, alone) was 8 µg/mL. The MIC ([1]; ECO URF20, alone) was 8 µg/mL, the MIC ([1]; strain ECO UFR177, compound alone) was 8 µg/mL and the MIC ([1]; strain ECO UFR178, compound alone) was 16 µg/mL. For the same compound, the MIC ([1]; strain ECO UFR179, compound alone) was 16 µg/mL, the MIC ([1]; strain ECO UFR180, compound alone) was 8 µg/mL and the MIC ([1]; strain ECO UFR181, compound alone) was 16 µg/mL. For the same compound, the MIC ([1]; strain ECO UFR182, compound alone) was 16 µg/mL, the MIC ([1]; strain ECO UFR183, compound alone) was 32 µg/mL and the MIC ([1]; strain ECO UFR186, compound alone) was 8 µg/mL. For the same compound, the MIC ([1]; strain ECO UFR187, compound alone) was 32 µg/mL, the MIC ([1]; strain ECO UFR189, compound alone) was 8 µg/mL and the MIC ([1]; strain ECO UFR190, compound alone) was 8 µg/mL. For the same compound, the MIC ([1]; strain ECO UFR191, compound alone) was 8 µg/mL, the MIC ([1]; strain ECO UFR204, compound alone) was 8 µg/mL and the MIC ([1]; strain ECO UFR205, compound alone) was 8 µg/mL. It also gave an MIC ([1]; strain ECO UFR206, compound alone) of 16 µg/mL, an MIC ([1]; strain ECO UFR252GO, compound alone) of 8 µg/mL and an MIC ([1]; strain ECO UFR255, compound alone) of 4 µg/mL. It also gave an MIC ([2]; ECL 2185D, alone) of 32 µg/mL, an MIC ([2]; ECL 190310, alone) of 32 µg/mL and an MIC ([2]; ECL 190408, alone) of 4 µg/mL. For the same compound, the MIC ([2]; ECL 200138, alone) was 16 µg/mL, the MIC ([2]; ECL 200322, alone) was 8 µg/mL and the MIC ([2]; ECL 260033, alone) was 16 µg/mL. For the same compound, the MIC ([2]; ECL 260253, alone) was 32 µg/mL, the MIC ([2]; ECL 260323, alone) was 16 µg/mL and the MIC ([2]; ECL 260508, alone) was 8 µg/mL. It also gave an MIC ([2]; ECL HAN, alone) of 32 µg/mL, an MIC ([2]; ECL NEM146383, alone) of 16 µg/mL and an MIC ([2]; ECL P99, alone) of 16 µg/mL. The MIC ([2]; ECL UFR12, alone) was 8 µg/mL, the MIC ([2]; ECL UFR13, alone) was 32 µg/mL and the MIC ([2]; ECL UFR14, alone) was 32 µg/mL. For the same compound, the MIC ([2]; ECL UFR38, alone) was 8 µg/mL, the MIC ([2]; ECL UFR51, alone) was 8 µg/mL and the MIC ([2]; ECL UFR60, alone) was 16 µg/mL. For the same compound, the MIC ([2]; ECL UFR70, alone) was 8 µg/mL, the MIC ([2]; ECL UFR84, alone) was 32 µg/mL and the MIC ([2]; ECL UFR85, alone) was 16 µg/mL. It also gave an MIC ([2]; ECL UFR200, alone) of 16 µg/mL, an MIC ([2]; strain ECL UFR192, compound alone) of 32 µg/mL and an MIC ([2]; strain ECL UFR193, compound alone) of 16 µg/mL. It also gave an MIC ([2]; strain ECL UFR194, compound alone) of 16 µg/mL, an MIC ([2]; strain ECL UFR195, compound alone) of 16 µg/mL and an MIC ([2]; strain ECL UFR196, compound alone) of 16 µg/mL. For the same compound, the MIC ([2]; strain ECL UFR197, compound alone) was 16 µg/mL, the MIC ([2]; strain ECL UFR198, compound alone) was 32 µg/mL and the MIC ([2]; strain ECL UFR203, compound alone) was 32 µg/mL. It also gave an MIC ([2]; strain ECL UFR214, compound alone) greater than 32 µg/mL, an MIC ([2]; strain ECL UFR252PT, compound alone) greater than 32 µg/mL and an MIC ([3]; MMO 200321, alone) of 32 µg/mL. For the same compound, the MIC ([3]; MMO UFR144, alone) was 32 µg/mL, the MIC ([3]; MMO UFR240, alone) was greater than 32 µg/mL and the MIC ([3]; MMO UFR241, alone) was 32 µg/mL. The MIC ([3]; MMO UFR242, alone) was 32 µg/mL, the MIC ([3]; MMO UFR243, alone) was greater than 32 µg/mL and the MIC ([3]; MMO UFR244, alone) was greater than 32 µg/mL. For the same compound, the MIC ([3]; MMO UFR245, alone) was 32 µg/mL, the MIC ([3]; MMO UFR246, alone) was 32 µg/mL and the MIC ([3]; MMO UFR247, alone) was 16 µg/mL. It also gave an MIC ([3]; strain MMO UFR145, compound alone) greater than 32 µg/mL, an MIC ([4]; EAE 49469) of 8 µg/mL and an MIC ([4]; EAE 200261) of 8 µg/mL. It also gave an MIC ([4]; EAE UFR199) of 16 µg/mL, an MIC ([4]; EAE UFR201) of 8 µg/mL and an MIC ([4]; EAE UFR202) of 32 µg/mL. For the same compound, the MIC ([4]; EAE UFR207) was 8 µg/mL, the MIC ([4]; EAE UFR213) was 16 µg/mL and the MIC ([5]; CKO ROU) was 32 µg/mL. It also gave an MIC ([5]; CKO UFR149) of 16 µg/mL and an MIC ([5]; CKO UFR150) greater than 32 µg/mL.
